In PMC5031402 (PLoS ONE, 2016):
Like-named read-outs stand apart in the source and are kept apart here.

Experiments:
[1] = system: AChE; conditions: read-out: IC50-30min; Piaractus mesopotamicus, freshwater fish; cited from earlier work
[2] = system: brain AChE; type: biochemical, Mugil liza; conditions: for inhibition of AChE: mullet AChE, 1-5 min incubation
Protocol: (§1) The residual enzyme activities [Er] were evaluated.

[3] = system: AChE; conditions: read-out: IC50-30min; Genidens genidens, marine fish; cited from earlier work
[4] = system: brain AChE; type: biochemical; conditions: Genidens genidens (catfish) brain AChE
Protocol: as §1

[5] = system: AChE; conditions: read-out: IC50-30min; Prochilodus lineatus, freshwater fish; cited from earlier work
[6] = system: brain AChE; conditions: read-out: IC50-30min; Rattus (rat) brain AChE; cited from earlier work
[7] = system: brain AChE; type: biochemical, Lagocephalus laevigatus
Protocol: as §1

[8] = target: T1, brain AChE (Gallus gallus, UniProt P36196); conditions: Gallus domesticus (hen) brain AChE
T1 sequence (P36196 20-767): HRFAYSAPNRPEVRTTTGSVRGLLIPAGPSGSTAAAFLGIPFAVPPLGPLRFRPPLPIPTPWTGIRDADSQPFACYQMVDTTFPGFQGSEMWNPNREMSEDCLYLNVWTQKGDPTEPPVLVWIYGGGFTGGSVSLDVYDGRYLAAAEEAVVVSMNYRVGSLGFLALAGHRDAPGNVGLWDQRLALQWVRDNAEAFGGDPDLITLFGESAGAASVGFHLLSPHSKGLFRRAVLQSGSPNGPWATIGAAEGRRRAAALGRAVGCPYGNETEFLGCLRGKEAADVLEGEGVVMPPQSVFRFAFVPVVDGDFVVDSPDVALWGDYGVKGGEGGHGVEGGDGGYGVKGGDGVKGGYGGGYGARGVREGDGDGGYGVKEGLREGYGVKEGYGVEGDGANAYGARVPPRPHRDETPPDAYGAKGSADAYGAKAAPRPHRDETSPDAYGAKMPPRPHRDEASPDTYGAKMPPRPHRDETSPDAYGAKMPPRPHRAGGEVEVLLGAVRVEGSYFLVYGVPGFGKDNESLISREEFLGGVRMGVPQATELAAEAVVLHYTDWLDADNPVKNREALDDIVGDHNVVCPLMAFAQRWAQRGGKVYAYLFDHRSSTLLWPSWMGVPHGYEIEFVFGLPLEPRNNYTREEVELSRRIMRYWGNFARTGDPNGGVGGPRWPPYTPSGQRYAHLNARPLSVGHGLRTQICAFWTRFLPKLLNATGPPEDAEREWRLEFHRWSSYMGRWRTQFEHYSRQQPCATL
Protocol: Whole brains were suspended in buffer (1 g of tissue plus 10 mL sodium phosphate 0.1 M, pH 7.5) and homogenized in an ice bath using an Ultra-Turrax homogenizer. The homogenate was then centrifuged (5,000g/30 min/5°C), and the soluble fraction was discarded. The pellet was then resuspended using the same volume of a 0.1 g% Triton X-100 in a 0.1 M sodium phosphate, pH 7.5, solution, and re-homogenized. After a second centrifugation (15,000g/90 min/5°C), the supernatant resulting from the pellet ressolubilization, or “solubilized AChE—AchEsol” [7], was collected, frozen, and stored at -20°C. All assays were conducted at most 72 hours after production of the supernatant fractions (AChEsol).
Brain AChE activity was assayed spectrophotometrically in 0.1 M sodium phosphate Triton X-100 0.1 g% pH 7.5 by a modification of Ellman’s method [18], as described by Silva Filho and colleagues [7]. The specificity of AChE for substrates (P%) was calculated by the ratio of AChE activity when using propionylthiocholine as substrate divided by AChE activity when using acetylthiocholine: P%, [(activity with ProScol/activity with AceScol) x 100] (%) [6].
Inhibition kinetic constants (IKC) were obtained using the methods described by Kemp and Wallace [9] and Carr and Chambers [19], and by the equations proposed by Kitz and Wilson [10] and Main [12]. […]

[9] = system: brain AChE; conditions: read-out: IC50-30min; Gallus (chicken) brain AChE; cited from earlier work
[10] = system: AChE; conditions: read-out: IC50-30min; Percophis brasiliensis, marine fish; cited from earlier work

## COP(=O)(OC)Oc1ccc([N+](=O)[O-])cc1 [methyl-paraoxon, dimethyl-4-nitrophenyl-phosphate]
[1]
  IC50: 3110 nM
[2]; Mugil liza (mullet) brain AChE
  kp: phosphorylation rate constant: 1.64 ± 0.6 min⁻¹
[2]; Mugil liza (mullet) brain AChE, pH 7.5, 0.1 g% Triton X-100
  ki: Bimolecular reaction constant: 179.5 ± 11.5 M⁻¹ s⁻¹
[2]; Mugil liza (mullet) brain AChE, read-out: Kd: dissociation constant of enzyme-inhibitor complex (EI)
  Kd: 159000 ± 59600 nM
[2]; 5μM of MP
  inhibition of AChE: less than 10%
[2]; 208μM of MP
  inhibition of AChE: higher than 90%
[2]; read-out: IC50: concentration that produced 50% inhibition of brain AChE activity in 30 min, Mugil liza (mullet), 30 min incubation, estimated using the ki
  IC50: 2880 ± 422 nM
[3]
  IC50: 455 nM
[4]
  kp: phosphorylation rate constant: 0.71 ± 0.1 min⁻¹
[4]; pH 7.5, 0.1 g% Triton X-100
  ki: Bimolecular reaction constant: 588 ± 26.7 M⁻¹ s⁻¹
[4]; read-out: Kd: dissociation constant of enzyme-inhibitor complex (EI)
  Kd: 20300 ± 2950 nM
[5]
  IC50: 123 nM
[6]
  IC50: 29 nM
[7]; Lagocephalus laevigatus (puffer fish) brain AChE
  kp: phosphorylation rate constant: 0.55 ± 0.08 min⁻¹
[7]; Lagocephalus laevigatus (puffer fish) brain AChE, pH 7.5, 0.1 g% Triton X-100
  ki: Bimolecular reaction constant: 155 ± 12.7 M⁻¹ s⁻¹
[7]; Lagocephalus laevigatus (puffer fish) brain AChE, read-out: Kd: dissociation constant of enzyme-inhibitor complex (EI)
  Kd: 62600 ± 14700 nM
[7]; read-out: IC50: concentration that produced 50% inhibition of brain AChE activity in 30 min, Lagocephalus laevigatus (puffer fish), 30 min incubation, estimated using the ki
  IC50: 2840 ± 145 nM
[8]
  kp: phosphorylation rate constant: 0.47 ± 0.1 min⁻¹
[8]; pH 7.5, 0.1 g% Triton X-100
  ki: Bimolecular reaction constant: 15010 ± 1090 M⁻¹ s⁻¹
[9]
  IC50: 37 nM
[10]
  IC50: 3340 nM
